Experimental data: patent US20260022142A1, “MACROCYCLIC IMMUNOMODULATORS” (Bristol-Myers Squibb Company, priority 2022, published 2026)
pIC50: −log10 of the molar value. Numbered stars: 1 amine (or outer) side, 2 acyl side, 3 side chain; on linkers, the order of the positions; unused ones are H or OH. Bridge positions count the residues as written; N and C are the ends. Square brackets hold non-standard residues; d marks the D form. Peptide text beside a SMILES is read from it. * marks the point of attachment. Phe(3,4-Cl2) = N[C@@H](Cc1ccc(Cl)c(Cl)c1)C(=O)O; Phe(4-COOH) = N[C@@H](Cc1ccc(C(=O)O)cc1)C(=O)O; Phe(3,4-F2) = N[C@@H](Cc1ccc(F)c(F)c1)C(=O)O; X9 = O=C([C@H](Cc1cc(F)c(F)cc1F)N[*:1])[*:2]; Bip = N[C@@H](Cc1ccc(-c2ccccc2)cc1)C(=O)O; Phe(3-Me) = Cc1cccc(C[C@H](N)C(=O)O)c1; Phe(4-F) = N[C@@H](Cc1ccc(F)cc1)C(=O)O; 1Nal = N[C@@H](Cc1cccc2ccccc12)C(=O)O; Bta = N[C@@H](Cc1csc2ccccc12)C(=O)O; Cha = N[C@@H](CC1CCCCC1)C(=O)O; Cit = NC(=O)NCCC[C@H](N)C(=O)O; Carboxymethyl = O=C(O)C*; Orn = NCCC[C@H](N)C(=O)O; Aun = NCCCCCCCCCCC(=O)O; Dab = NCC[C@H](N)C(=O)O; Dap = NC[C@H](N)C(=O)O; AEEA = NCCOCCOCC(=O)O

Biological target: T1, PD-1/PD-L1 interaction (PE-labeled human PD-L1-Ig binding to Jurkat cell line over-expressing human PD-1) (Homo sapiens, UniProt Q15116)
T1 construct: expressed in transfected cells; host or cells: Jurkat
Assay: Jurkat-PD-1 Cell Binding High-Content Screening Assay (CBA)
Type: cell-based
Settings: Jurkat cell line over-expressing human PD-1; PE-labeled PD-L1-Ig 20 nM final; read-out: Jurkat hPD1-PDL1 IC50
In short: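 Jurkat-hPD-1 cells, DMEM/10% FCS; cpd 2 h 37° C; PE-PD-L1-Ig 20 nM final, 1 h; 4% PFA fix + Hoechst 33342, 3× dPBS wash; high-content imaging read-out.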

T1 sequence (Q15116 25-288): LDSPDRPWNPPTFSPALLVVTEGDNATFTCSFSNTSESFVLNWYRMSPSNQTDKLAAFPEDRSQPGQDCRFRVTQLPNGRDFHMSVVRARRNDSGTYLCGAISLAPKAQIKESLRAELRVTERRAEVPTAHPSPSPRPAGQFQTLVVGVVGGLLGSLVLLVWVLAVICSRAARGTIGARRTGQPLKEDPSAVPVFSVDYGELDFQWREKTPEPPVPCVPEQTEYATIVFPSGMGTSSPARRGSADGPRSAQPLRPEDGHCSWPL

**Q.** How did the pIC50 turn out when `CC(C)C[C@H]1NC(=O)[C@H](CCCN)NC(=O)[C@H](Cc2ccc(O)cc2)NC(=O)[C@H](Cc2ccc(-c3ccccc3)cc2)NC(=O)[C@H](C(C)C)NC(=O)[C@H](Cc2ccc(F)cc2)NC(=O)[C@H](CC(=O)O)NC(=O)[C@H](Cc2ccc(OCC(=O)O)cc2)NC(=O)[C@H](CN)NC(=O)CSC[C@@H](C(=O)N[C@@H](CCN)C(=O)NCCOCCOCC(=O)NCCCCCCCCCCC(=O)O)NC(=O)[C@H](CCCN)NC(=O)[C@H](C(C)C)NC(=O)[C@H](CC2CCCCC2)NC(=O)[C@H](CCN)NC1=O` [Compound 1294] ({CH2CO}-[Dap]Y(Carboxymethyl)D[Phe(4-F)]V[Bip]Y[Orn][dL][Dab][Cha]V[Orn]C[Dab][AEEA][Aun]-OH; thioether N-14) was run?
**A.** 7.71

**Q.** With `Cc1cccc(C[C@@H]2NC(=O)[C@H](CC(=O)O)NC(=O)[C@H](Cc3ccc(OCC(=O)O)cc3)NC(=O)[C@H](CN)NC(=O)CSC[C@@H](C(=O)NCC(=O)NCCCCCCCCCCC(=O)O)NC(=O)[C@H]([C@@H](C)O)NC(=O)[C@H](C(C)C)NC(=O)[C@H](CC3CCCCC3)NC(=O)[C@H](CCN)NC(=O)[C@@H](CC(C)C)NC(=O)[C@H](CCCN)NC(=O)[C@H](CCCNC(N)=O)NC(=O)[C@H](Cc3ccc(-c4ccccc4)cc3)NC(=O)[C@H](C(C)C)NC2=O)c1` [Compound 1295] ({CH2CO}-[Dap]Y(Carboxymethyl)D[Phe(3-Me)]V[Bip][Cit][Orn][dL][Dab][Cha]VTCG[Aun]-OH; thioether N-14) as the molecule, how does the pIC50 read?
**A.** 7.65

**Q.** How did the pIC50 turn out when `Cc1cccc(C[C@@H]2NC(=O)[C@H](CC(=O)O)NC(=O)[C@H](Cc3ccc(OCC(=O)O)cc3)NC(=O)[C@H](CCCNC(=N)N)NC(=O)CSC[C@@H](C(=O)N[C@@H](CCCCN)C(=O)NCCCCCCCCCCC(=O)O)NC(=O)[C@H]([C@@H](C)O)NC(=O)[C@H](C(C)C)NC(=O)[C@H](CC3CCCCC3)NC(=O)[C@H](CCN)NC(=O)[C@@H](CC(C)C)NC(=O)[C@H](CCCN)NC(=O)[C@H](Cc3ccc(OCC(=O)O)cc3)NC(=O)[C@H](Cc3ccc(-c4ccccc4)cc3)NC(=O)[C@H](Cc3ccc(OCC(=O)O)cc3)NC2=O)c1` [Compound 1296] ({CH2CO}-RY(Carboxymethyl)D[Phe(3-Me)]Y(Carboxymethyl)[Bip]Y(Carboxymethyl)[Orn][dL][Dab][Cha]VTCK[Aun]-OH; thioether N-14) was run?
**A.** 7.62

**Q.** `CC(C)C[C@H]1NC(=O)[C@H](CCCN)NC(=O)[C@H](Cc2ccc(O)cc2)NC(=O)[C@H](Cc2ccc(-c3ccccc3)cc2)NC(=O)[C@H](C(C)C)NC(=O)[C@H](Cc2cccc3ccccc23)NC(=O)[C@H](CC(=O)O)NC(=O)[C@H](Cc2ccc(OCC(=O)O)cc2)NC(=O)[C@H](CN)NC(=O)CSC[C@@H](C(=O)N[C@@H](CCN)C(=O)NCCOCCOCC(=O)NCCCCCCCCCCC(=O)O)NC(=O)[C@H](CCCN)NC(=O)[C@H](C(C)C)NC(=O)[C@H](CC2CCCCC2)NC(=O)[C@H](CCN)NC1=O` [Compound 1297] ({CH2CO}-[Dap]Y(Carboxymethyl)D[1Nal]V[Bip]Y[Orn][dL][Dab][Cha]V[Orn]C[Dab][AEEA][Aun]-OH; thioether N-14) was tested. Which pIC50 did it give?
**A.** 7.61

**Q.** With `CC(C)C[C@H]1NC(=O)[C@H](CCCN)NC(=O)[C@H](Cc2ccc(O)cc2)NC(=O)[C@H](Cc2ccc(-c3ccccc3)cc2)NC(=O)[C@H](Cc2ccc(OCC(=O)O)cc2)NC(=O)[C@H](Cc2ccc(F)cc2)NC(=O)[C@H](CC(=O)O)NC(=O)[C@H](Cc2ccc(OCC(=O)O)cc2)NC(=O)[C@H](CN)NC(=O)CSC[C@@H](C(=O)N[C@@H](CCN)C(=O)NCCOCCOCC(=O)NCCCCCCCCCCC(=O)O)NC(=O)[C@H](CCCN)NC(=O)[C@H](C(C)C)NC(=O)[C@H](CC2CCCCC2)NC(=O)[C@H](CCN)NC1=O` [Compound 1298] ({CH2CO}-[Dap]Y(Carboxymethyl)D[Phe(4-F)]Y(Carboxymethyl)[Bip]Y[Orn][dL][Dab][Cha]V[Orn]C[Dab][AEEA][Aun]-OH; thioether N-14) as the molecule, how does the pIC50 read?
**A.** 7.54

**Q.** With `CC(C)C[C@H]1NC(=O)[C@H](CCCN)NC(=O)[C@H](Cc2ccc(O)cc2)NC(=O)[C@H](Cc2ccc(-c3ccccc3)cc2)NC(=O)[C@H](C(C)C)NC(=O)[C@H](Cc2ccc(F)c(F)c2)NC(=O)[C@H](CC(=O)O)NC(=O)[C@H](Cc2ccc(OCC(=O)O)cc2)NC(=O)[C@H](CN)NC(=O)CSC[C@@H](C(=O)N[C@@H](CCN)C(=O)NCCOCCOCC(=O)NCCCCCCCCCCC(=O)O)NC(=O)[C@H](CCCN)NC(=O)[C@H](C(C)C)NC(=O)[C@H](CC2CCCCC2)NC(=O)[C@H](CCN)NC1=O` [Compound 1301] ({CH2CO}-[Dap]Y(Carboxymethyl)D[Phe(3,4-F2)]V[Bip]Y[Orn][dL][Dab][Cha]V[Orn]C[Dab][AEEA][Aun]-OH; thioether N-14) as the molecule, how does the pIC50 read?
**A.** 7.50

**Q.** How did the pIC50 turn out when `CC(C)C[C@H]1NC(=O)[C@H](CCCN)NC(=O)[C@H](Cc2ccc(O)cc2)NC(=O)[C@H](Cc2ccc(-c3ccccc3)cc2)NC(=O)[C@H](C(C)C)NC(=O)[C@H](Cc2ccc(O)cc2)NC(=O)[C@H](CC(=O)O)NC(=O)[C@H](Cc2ccc(OCC(=O)O)cc2)NC(=O)[C@H](CN)NC(=O)CSC[C@@H](C(=O)N[C@@H](CCN)C(=O)NCCOCCOCC(=O)NCCCCCCCCCCC(=O)O)NC(=O)[C@H](CCCN)NC(=O)[C@H](C(C)C)NC(=O)[C@H](CC2CCCCC2)NC(=O)[C@H](CCN)NC1=O` [Compound 1302] ({CH2CO}-[Dap]Y(Carboxymethyl)DYV[Bip]Y[Orn][dL][Dab][Cha]V[Orn]C[Dab][AEEA][Aun]-OH; thioether N-14) was run?
**A.** 7.50

**Q.** With `Cc1cccc(C[C@@H]2NC(=O)[C@H](CC(=O)O)NC(=O)[C@H](Cc3ccc(OCC(=O)O)cc3)NC(=O)[C@H]([C@@H](C)O)NC(=O)CSC[C@@H](C(=O)N[C@@H](CCCCN)C(=O)NCCCCCCCCCCC(=O)O)NC(=O)[C@H]([C@@H](C)O)NC(=O)[C@H](C(C)C)NC(=O)[C@H](CC3CCCCC3)NC(=O)[C@H](CCN)NC(=O)[C@@H](CC(C)C)NC(=O)[C@H](CCCN)NC(=O)[C@H](Cc3ccc(OCC(=O)O)cc3)NC(=O)[C@H](Cc3ccc(-c4ccccc4)cc3)NC(=O)[C@H](Cc3ccc(C(=O)O)cc3)NC2=O)c1` [Compound 1303] ({CH2CO}-TY(Carboxymethyl)D[Phe(3-Me)][Phe(4-COOH)][Bip]Y(Carboxymethyl)[Orn][dL][Dab][Cha]VTCK[Aun]-OH; thioether N-14) as the molecule, how does the pIC50 read?
**A.** 7.49

**Q.** How did the pIC50 turn out when `CC(C)C[C@H]1NC(=O)[C@H](CCCN)NC(=O)[C@H](Cc2ccc(O)cc2)NC(=O)[C@H](Cc2ccc(-c3ccccc3)cc2)NC(=O)[C@H](C(C)C)NC(=O)[C@H](Cc2csc3ccccc23)NC(=O)[C@H](CC(=O)O)NC(=O)[C@H](Cc2ccc(OCC(=O)O)cc2)NC(=O)[C@H](CN)NC(=O)CSC[C@@H](C(=O)N[C@@H](CCN)C(=O)NCCOCCOCC(=O)NCCCCCCCCCCC(=O)O)NC(=O)[C@H](CCCN)NC(=O)[C@H](C(C)C)NC(=O)[C@H](CC2CCCCC2)NC(=O)[C@H](CCN)NC1=O` [Compound 1304] ({CH2CO}-[Dap]Y(Carboxymethyl)D[Bta]V[Bip]Y[Orn][dL][Dab][Cha]V[Orn]C[Dab][AEEA][Aun]-OH; thioether N-14) was run?
**A.** 7.43

**Q.** How did the pIC50 turn out when `CC(C)C[C@H]1NC(=O)[C@H](CCCN)NC(=O)[C@H](Cc2ccc(O)cc2)NC(=O)[C@H](Cc2ccc(-c3ccccc3)cc2)NC(=O)[C@H](Cc2ccc(OCC(=O)O)cc2)NC(=O)[C@H](Cc2cccc3ccccc23)NC(=O)[C@H](CC(=O)O)NC(=O)[C@H](Cc2ccc(OCC(=O)O)cc2)NC(=O)[C@H](CN)NC(=O)CSC[C@@H](C(=O)N[C@@H](CCN)C(=O)NCCOCCOCC(=O)NCCCCCCCCCCC(=O)O)NC(=O)[C@H](CCCN)NC(=O)[C@H](C(C)C)NC(=O)[C@H](CC2CCCCC2)NC(=O)[C@H](CCN)NC1=O` [Compound 1305] ({CH2CO}-[Dap]Y(Carboxymethyl)D[1Nal]Y(Carboxymethyl)[Bip]Y[Orn][dL][Dab][Cha]V[Orn]C[Dab][AEEA][Aun]-OH; thioether N-14) was run?
**A.** 7.36

**Q.** `CC(C)C[C@H]1NC(=O)[C@H](CCCN)NC(=O)[C@H](Cc2ccc(O)cc2)NC(=O)[C@H](Cc2ccc(-c3ccccc3)cc2)NC(=O)[C@H](Cc2ccc(OCC(=O)O)cc2)NC(=O)[C@H](Cc2c[nH]c3ccccc23)NC(=O)[C@H](CC(=O)O)NC(=O)[C@H](Cc2ccc(OCC(=O)O)cc2)NC(=O)[C@H](CN)NC(=O)CSC[C@@H](C(=O)N[C@@H](CCN)C(=O)NCCOCCOCC(=O)NCCCCCCCCCCC(=O)O)NC(=O)[C@H](CCCN)NC(=O)[C@H](C(C)C)NC(=O)[C@H](CC2CCCCC2)NC(=O)[C@H](CCN)NC1=O` [Compound 1306] ({CH2CO}-[Dap]Y(Carboxymethyl)DWY(Carboxymethyl)[Bip]Y[Orn][dL][Dab][Cha]V[Orn]C[Dab][AEEA][Aun]-OH; thioether N-14) was tested. Which pIC50 did it give?
**A.** 7.31

**Q.** With `CC(C)C[C@H]1NC(=O)[C@H](CCCN)NC(=O)[C@H](Cc2ccc(O)cc2)NC(=O)[C@H](Cc2ccc(-c3ccccc3)cc2)NC(=O)[C@H](Cc2ccc(OCC(=O)O)cc2)NC(=O)[C@H](Cc2ccc(Cl)c(Cl)c2)NC(=O)[C@H](CC(=O)O)NC(=O)[C@H](Cc2ccc(OCC(=O)O)cc2)NC(=O)[C@H](CN)NC(=O)CSC[C@@H](C(=O)N[C@@H](CCN)C(=O)NCCOCCOCC(=O)NCCCCCCCCCCC(=O)O)NC(=O)[C@H](CCCN)NC(=O)[C@H](C(C)C)NC(=O)[C@H](CC2CCCCC2)NC(=O)[C@H](CCN)NC1=O` [Compound 1307] ({CH2CO}-[Dap]Y(Carboxymethyl)D[Phe(3,4-Cl2)]Y(Carboxymethyl)[Bip]Y[Orn][dL][Dab][Cha]V[Orn]C[Dab][AEEA][Aun]-OH; thioether N-14) as the molecule, how does the pIC50 read?
**A.** 7.30

**Q.** How did the pIC50 turn out when `CC(C)C[C@H]1NC(=O)[C@H](CCCN)NC(=O)[C@H](Cc2ccc(O)cc2)NC(=O)[C@H](Cc2ccc(-c3ccccc3)cc2)NC(=O)[C@H](C(C)C)NC(=O)[C@H](Cc2cc(F)c(F)cc2F)NC(=O)[C@H](CC(=O)O)NC(=O)[C@H](Cc2ccc(OCC(=O)O)cc2)NC(=O)[C@H](CN)NC(=O)CSC[C@@H](C(=O)N[C@@H](CCN)C(=O)NCCOCCOCC(=O)NCCCCCCCCCCC(=O)O)NC(=O)[C@H](CCCN)NC(=O)[C@H](C(C)C)NC(=O)[C@H](CC2CCCCC2)NC(=O)[C@H](CCN)NC1=O` [Compound 1308] ({CH2CO}-[Dap]Y(Carboxymethyl)D[X9]V[Bip]Y[Orn][dL][Dab][Cha]V[Orn]C[Dab][AEEA][Aun]-OH; thioether N-14) was run?
**A.** 7.22
